Molecules are shown by their SMILES. pIC50: −log10 of the molar value.

The text below walks through data of patent publication US12606544B2, “JAK1 selective kinase inhibitor” (DIZAL (JIANGSU) PHARMACEUTICAL CO., LTD., priority 2019, dated 2026).

One series deals with T1, JAK3 (Homo sapiens, UniProt P52333).
T1 construct: purchased Carna Biosciences
T1 sequence (P52333 1-1124): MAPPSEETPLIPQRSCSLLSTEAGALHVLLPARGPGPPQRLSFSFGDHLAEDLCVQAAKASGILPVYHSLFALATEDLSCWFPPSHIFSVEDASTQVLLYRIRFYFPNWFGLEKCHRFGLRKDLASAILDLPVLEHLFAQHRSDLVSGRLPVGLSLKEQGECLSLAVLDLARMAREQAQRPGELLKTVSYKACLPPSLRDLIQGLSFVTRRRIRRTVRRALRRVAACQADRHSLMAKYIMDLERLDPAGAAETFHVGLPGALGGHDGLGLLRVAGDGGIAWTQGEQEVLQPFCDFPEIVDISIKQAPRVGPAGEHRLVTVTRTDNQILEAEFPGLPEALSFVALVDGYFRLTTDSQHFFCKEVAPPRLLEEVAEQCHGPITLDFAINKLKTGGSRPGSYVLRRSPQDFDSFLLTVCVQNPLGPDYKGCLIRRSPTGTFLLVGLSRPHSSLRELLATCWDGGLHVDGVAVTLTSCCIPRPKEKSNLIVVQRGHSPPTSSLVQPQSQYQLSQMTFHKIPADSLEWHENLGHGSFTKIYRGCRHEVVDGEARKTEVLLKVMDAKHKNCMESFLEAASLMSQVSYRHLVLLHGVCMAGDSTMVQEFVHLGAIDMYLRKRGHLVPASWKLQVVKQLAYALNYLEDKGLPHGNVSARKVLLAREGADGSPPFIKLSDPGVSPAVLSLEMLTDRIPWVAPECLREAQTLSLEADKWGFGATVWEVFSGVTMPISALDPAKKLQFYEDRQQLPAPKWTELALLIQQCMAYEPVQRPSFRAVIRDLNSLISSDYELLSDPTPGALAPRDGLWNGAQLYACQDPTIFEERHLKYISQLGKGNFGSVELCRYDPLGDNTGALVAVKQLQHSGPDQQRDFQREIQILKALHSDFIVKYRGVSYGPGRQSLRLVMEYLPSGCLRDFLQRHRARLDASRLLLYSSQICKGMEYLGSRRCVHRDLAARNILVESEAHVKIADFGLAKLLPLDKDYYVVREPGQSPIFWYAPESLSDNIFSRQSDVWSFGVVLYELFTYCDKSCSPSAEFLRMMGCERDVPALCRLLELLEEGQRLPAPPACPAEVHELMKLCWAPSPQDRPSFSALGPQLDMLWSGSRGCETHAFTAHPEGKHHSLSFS
In words: Lance Ultra Kinase Assay, recombinant JAK3. Type of series: biochemical. The following applies: 5 mM ATP. The essentials:
(§1)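 Each recombinant kinase preincubated with or without compound 15 min at room temperature, then reaction started with 5 mM ATP and substrate peptide for 60 min. Stopped with EDTA-containing detection mix; TR-FRET read at ex 320 nm, 665/615 nm emission ratio taken as kinase activity.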

Series [1] can be described thus: Metabolic stability in human liver microsome. The format is in vitro ADME. Conditions: human, pooled human liver microsomes, pH 7.4, 1 μM compound, 1 mg/mL microsomes, NADPH. Here is the method: (§2) Rat hepatocytes in male gender and human liver microsome were obtained from commercial vendors (e.g., BioreclamationIVT) and stored at −150° C. prior to use.
For metabolic stability assay with human liver microsome, 1 μM of each test compound was incubated with 1 mg/mL of microsomes (Pooled HLM with 20 mg/ml protein cone) at 37° C. in 250 μL of buffer (100 mM phosphate buffer, pH-7.4) containing 1 mM NADPH solution. […] was quenched with 5 volumes chilled acetonitrile at different time points 0, 0.5, 5, 10, 15, 20 and 30 min in a fresh 96 well plate. The quench plate was centrifuged at 4000 rpm for 15 min. 40 μL of supernatant was diluted to 200 μL with pure water and analyzed using LC-MS/MS. […]
(Liver microsomes are vesicles of endoplasmic reticulum, rich in cytochrome P450 enzymes.)

The next series deals with T2, JAK2 (Homo sapiens, UniProt O60674).
T2 construct: purchased Carna Biosciences
In words: Lance Ultra Kinase Assay, recombinant JAK2. The format is biochemical. Conditions: 5 mM ATP. The essentials: as §1

The target in a further series is T3, TYK2 (Homo sapiens, UniProt P29597).
T3 construct: purchased Carna Biosciences
The experiment in a line: Lance Ultra Kinase Assay, recombinant TYK2. The format is biochemical. Conditions: 5 mM ATP. The procedure, abridged: as §1

The test system of the next series is phosphorylation of STAT6. In words: Cellular p-STAT6 assay, IL-13 stimulated THP-1 cells, flow cytometry. The format is cell-based. The following applies: Homo sapiens, THP-1, THP-1 cells, IL-13 10 ng/ml; read-out: pSTAT6 IC50. The essentials:
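THP-1 cells (2×10^5/well, RPMI1640 + 10% FBS) preincubated 60 min at room temperature with compound (1 μM to 0.3 nM), then stimulated 30 min with IL-13 at 10 ng/ml. Fixed, methanol-permeabilized cells stained with PE anti-pSTAT6 and read by flow cytometry; IC50 from dose-response curves.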
(In general: A flow cytometer gives signals particle by particle.)

The next series deals with T4, JAK1 (Homo sapiens, UniProt P23458).
T4 construct: purchased Carna Biosciences
The experiment in a line: Lance Ultra Kinase Assay, recombinant JAK1. Type of series: biochemical. The following applies: 5 mM ATP. The procedure, abridged:
as §1

Series [2] in a line: Metabolic stability in rat hepatocytes. The format is in vitro ADME. The following applies: 1 μM compound, male rat hepatocytes. Here is the method:
as §2
For metabolic stability assay with rat heptatocytes, vials of cryopreserved hepatocytes or microsome were removed from storage, ensured that vials remain at cryogenic temperatures. 1 μM of each test compound (in Acetonitrile; 0.01% DMSO) was incubated with 250 μL of hepatocyte cells (1×10^6 cells/ml) in a 96 deep well plate. […] 40 μL of supernatant was diluted to 200 μL with pure water and analyzed using LC-MS/MS.
In vitro hepatocyte clearance was estimated based on determination of elimination half-life (T1/2) of compounds disappearance from their initial concentrations. Peak area ratios of each compound (test or control) to IS was calculated. Ln (% Control) versus Incubation Time (min) curve was plotted, and the slope of a linear fitting line was calculated. Drug elimination rate constant k (min−1), T1/2 (min), and in vitro intrinsic clearance CLint (μL/min/E6) was calculated according to the following equations: k=−slope T1/2=0.693/k CLint=k/Chep Where Chep (cells×μL^−1) is the cell concentration in the incubation system.

T3 sequence (P29597 whole entry): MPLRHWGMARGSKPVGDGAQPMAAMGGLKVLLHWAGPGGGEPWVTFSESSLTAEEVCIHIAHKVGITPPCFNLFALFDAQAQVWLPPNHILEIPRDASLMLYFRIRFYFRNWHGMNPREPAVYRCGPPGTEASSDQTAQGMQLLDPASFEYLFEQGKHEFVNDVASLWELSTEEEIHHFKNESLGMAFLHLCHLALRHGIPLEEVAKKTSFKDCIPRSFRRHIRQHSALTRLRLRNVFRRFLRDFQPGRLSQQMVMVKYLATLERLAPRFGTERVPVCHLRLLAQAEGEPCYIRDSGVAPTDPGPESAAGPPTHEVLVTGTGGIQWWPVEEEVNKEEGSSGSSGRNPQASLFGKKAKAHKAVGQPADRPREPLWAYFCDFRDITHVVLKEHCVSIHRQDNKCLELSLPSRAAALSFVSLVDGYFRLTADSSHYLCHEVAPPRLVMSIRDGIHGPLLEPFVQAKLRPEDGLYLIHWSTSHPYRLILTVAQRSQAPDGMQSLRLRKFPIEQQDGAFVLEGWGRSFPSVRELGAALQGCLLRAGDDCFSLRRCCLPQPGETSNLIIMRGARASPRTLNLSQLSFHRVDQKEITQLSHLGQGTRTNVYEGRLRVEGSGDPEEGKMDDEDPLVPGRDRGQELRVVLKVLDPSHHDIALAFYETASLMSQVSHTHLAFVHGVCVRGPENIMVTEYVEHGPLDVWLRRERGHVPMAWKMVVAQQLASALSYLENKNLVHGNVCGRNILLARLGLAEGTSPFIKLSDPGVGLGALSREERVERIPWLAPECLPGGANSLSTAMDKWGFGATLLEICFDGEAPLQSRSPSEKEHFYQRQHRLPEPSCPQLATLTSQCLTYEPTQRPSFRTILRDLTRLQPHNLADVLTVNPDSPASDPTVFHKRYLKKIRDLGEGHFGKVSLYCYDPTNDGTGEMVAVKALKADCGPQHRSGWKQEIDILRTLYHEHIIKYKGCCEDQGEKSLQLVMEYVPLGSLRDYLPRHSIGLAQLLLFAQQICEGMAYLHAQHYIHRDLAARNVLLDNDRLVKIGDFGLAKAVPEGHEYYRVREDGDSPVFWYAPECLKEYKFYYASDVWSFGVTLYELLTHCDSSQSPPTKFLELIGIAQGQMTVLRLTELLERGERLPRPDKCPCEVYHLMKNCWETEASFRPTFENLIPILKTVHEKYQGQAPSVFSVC
T2 sequence (O60674 whole entry): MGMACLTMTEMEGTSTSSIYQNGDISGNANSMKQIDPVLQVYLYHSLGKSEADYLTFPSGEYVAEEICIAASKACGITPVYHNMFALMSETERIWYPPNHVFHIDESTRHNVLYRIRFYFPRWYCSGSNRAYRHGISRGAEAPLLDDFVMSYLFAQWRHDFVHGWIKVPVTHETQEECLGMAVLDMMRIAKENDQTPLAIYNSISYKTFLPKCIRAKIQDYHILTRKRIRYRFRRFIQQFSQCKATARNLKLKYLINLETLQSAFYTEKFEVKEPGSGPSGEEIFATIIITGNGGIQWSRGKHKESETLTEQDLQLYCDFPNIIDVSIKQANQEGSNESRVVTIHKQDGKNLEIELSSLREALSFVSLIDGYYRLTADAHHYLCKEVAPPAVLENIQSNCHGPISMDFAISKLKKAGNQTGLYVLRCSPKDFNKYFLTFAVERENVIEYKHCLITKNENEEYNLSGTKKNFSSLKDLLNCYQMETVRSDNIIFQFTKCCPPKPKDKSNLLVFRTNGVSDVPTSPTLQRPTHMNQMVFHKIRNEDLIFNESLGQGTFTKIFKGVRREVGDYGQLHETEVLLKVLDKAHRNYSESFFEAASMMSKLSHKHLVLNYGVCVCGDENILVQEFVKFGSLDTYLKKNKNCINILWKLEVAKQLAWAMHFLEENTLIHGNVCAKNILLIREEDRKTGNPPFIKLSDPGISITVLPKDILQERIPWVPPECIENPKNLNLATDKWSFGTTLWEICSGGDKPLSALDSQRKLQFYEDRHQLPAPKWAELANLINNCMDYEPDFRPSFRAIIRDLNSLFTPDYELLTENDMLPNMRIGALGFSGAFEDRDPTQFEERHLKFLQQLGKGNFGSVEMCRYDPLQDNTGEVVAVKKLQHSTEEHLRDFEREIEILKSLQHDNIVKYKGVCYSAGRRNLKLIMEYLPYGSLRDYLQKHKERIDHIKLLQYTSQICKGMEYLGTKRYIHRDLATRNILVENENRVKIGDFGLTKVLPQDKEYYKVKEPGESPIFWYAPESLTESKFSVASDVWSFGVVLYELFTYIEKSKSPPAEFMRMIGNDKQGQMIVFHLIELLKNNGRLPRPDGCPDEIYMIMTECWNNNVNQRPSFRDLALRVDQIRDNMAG
T4 sequence (P23458 whole entry): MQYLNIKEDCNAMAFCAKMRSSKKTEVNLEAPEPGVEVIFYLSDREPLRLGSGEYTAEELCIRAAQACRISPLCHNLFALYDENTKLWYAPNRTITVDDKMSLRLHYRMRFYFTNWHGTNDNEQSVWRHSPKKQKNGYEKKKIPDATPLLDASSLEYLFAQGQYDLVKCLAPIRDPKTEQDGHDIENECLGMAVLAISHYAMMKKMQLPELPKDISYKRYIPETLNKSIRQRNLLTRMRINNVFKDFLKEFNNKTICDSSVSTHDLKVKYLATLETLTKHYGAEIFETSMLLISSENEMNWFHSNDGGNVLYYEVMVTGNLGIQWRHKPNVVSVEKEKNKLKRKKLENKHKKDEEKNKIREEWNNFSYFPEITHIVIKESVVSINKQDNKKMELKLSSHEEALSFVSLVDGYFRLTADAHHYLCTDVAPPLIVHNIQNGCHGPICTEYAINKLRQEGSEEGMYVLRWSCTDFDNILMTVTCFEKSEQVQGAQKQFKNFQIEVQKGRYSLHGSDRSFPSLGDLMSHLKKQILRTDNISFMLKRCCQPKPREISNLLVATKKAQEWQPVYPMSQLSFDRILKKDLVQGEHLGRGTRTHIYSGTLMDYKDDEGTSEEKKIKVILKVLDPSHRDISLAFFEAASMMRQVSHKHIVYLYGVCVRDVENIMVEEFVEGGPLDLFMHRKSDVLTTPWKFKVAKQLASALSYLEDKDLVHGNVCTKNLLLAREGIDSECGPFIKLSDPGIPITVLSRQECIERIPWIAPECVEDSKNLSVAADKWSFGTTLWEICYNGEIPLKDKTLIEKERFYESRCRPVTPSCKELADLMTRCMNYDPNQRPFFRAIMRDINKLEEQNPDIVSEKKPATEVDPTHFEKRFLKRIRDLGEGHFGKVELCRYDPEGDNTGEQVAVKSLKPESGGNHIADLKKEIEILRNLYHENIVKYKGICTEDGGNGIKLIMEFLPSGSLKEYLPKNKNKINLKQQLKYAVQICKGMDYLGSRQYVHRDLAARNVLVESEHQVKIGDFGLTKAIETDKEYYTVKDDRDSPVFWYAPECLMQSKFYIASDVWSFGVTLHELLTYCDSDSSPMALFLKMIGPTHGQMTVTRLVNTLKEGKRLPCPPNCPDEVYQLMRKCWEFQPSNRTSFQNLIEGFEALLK

By pIC50 is commonly meant −log10 of the IC50, conventionally taken in molar units. One may read the microsomal CLint as the capacity of the preparation to metabolise the compound, expressed as a volume cleared per time. A lower microsomal CLint goes with greater metabolic stability. In the case of `CCOC(=O)c1ccc(Nc2ncc(F)c(-c3c[nH]c4c(NC(=O)[C@@H](COC)N5CCN(C)CC5)cccc34)n2)cn1` [Example 36, ethyl (R)-5-((5-fluoro-4-(7-(3-methoxy-2-(4-methylpiperazin-1-yl)propanamido)-1H-indol-3-yl)pyrimidin-2-yl)amino)picolinate], the pIC50 on JAK3 was less than 5.00; on JAK2, 6.31; at TYK2, 5.34; in the series with phosphorylation of STAT6 it was 7.94; on JAK1, 9.54. Further, the microsomal CLint at 1 μM in series [1] was greater than 300 µL/min/mg. Further, the “Rat Hepatocyte CLint” value in series [2] was greater than 300 μL/min/10^6 cells.

`COC[C@H](C(=O)Nc1cccc2c(-c3nc(Nc4ccc5c(c4)NC(=O)C5)ncc3F)c[nH]c12)N1CCN(C)CC1` [Example 37, (R)-N-(3-(5-fluoro-2-((2-oxoindolin-6-yl)amino)pyrimidin-4-yl)-1H-indol-7-yl)-3-methoxy-2-(4-methylpiperazin-1-yl)propanamide]: the pIC50 on JAK3 is 5.32; at JAK2, 7.17; at TYK2 it was 6.00; in the series on phosphorylation of STAT6, 7.94; on JAK1, 9.68. The compound further showed a microsomal CLint at 1 μM in series [1] of 11.7 µL/min/mg. Moreover, the “Rat Hepatocyte CLint” value in series [2] is 6.3 μL/min/10^6 cells.

With `COC[C@H](C(=O)Nc1cccc2c(-c3nc(Nc4ccc5nc[nH]c5c4)ncc3F)c[nH]c12)N1CCN(C)CC1` [Example 45, (R)-N-(3-(2-((1H-benzo[d]imidazol-6-yl)amino)-5-fluoropyrimidin-4-yl)-1H-indol-7-yl)-3-methoxy-2-(4-methylpiperazin-1-yl)propanamide], the pIC50 on JAK3 is less than 5.00; at JAK2, 6.88; at TYK2 it was 5.89; in the series with phosphorylation of STAT6 it was 7.87; on JAK1 it was 9.85. In series [1], this compound gave a microsomal CLint at 1 μM of 45.2 µL/min/mg. Besides, the “Rat Hepatocyte CLint” value in series [2] stood at 2.7 μL/min/10^6 cells.

As to `COC[C@H](C(=O)Nc1cccc2c(-c3nc(Nc4ccc(NC(C)=O)nc4)ncc3F)c[nH]c12)N1CCN(C)CC1` [Example 48, (R)-N-(3-(2-((6-acetamidopyridin-3-yl)amino)-5-fluoropyrimidin-4-yl)-1H-indol-7-yl)-3-methoxy-2-(4-methylpiperazin-1-yl)propanamide], the pIC50 is less than 5.00 at JAK3; 6.42 on JAK2; 5.77 on TYK2; 7.85 in the series on phosphorylation of STAT6; 9.57 at JAK1. Besides, in series [1], the microsomal CLint at 1 μM is 69.1 µL/min/mg. Also, the “Rat Hepatocyte CLint” value in series [2] amounted to 1.6 μL/min/10^6 cells.

Take `COC[C@H](C(=O)Nc1cccc2c(-c3nc(Nc4cnn(-c5ccccc5CO)c4)ncc3F)c[nH]c12)N1CCN(C)CC1` [Example 53, (R)-N-(3-(5-fluoro-2-((1-(2-(hydroxymethyl)phenyl)-1H-pyrazol-4-yl)amino)pyrimidin-4-yl)-1H-indol-7-yl)-3-methoxy-2-(4-methylpiperazin-1-yl)propanamide]: the pIC50 is less than 5.00 on JAK3; 6.74 at JAK2; 5.78 on TYK2; 7.82 in the series on phosphorylation of STAT6; 9.66 on JAK1. In series [1], the microsomal CLint at 1 μM worked out at 27.9 µL/min/mg. Moreover, the “Rat Hepatocyte CLint” value in series [2] amounted to 17.4 μL/min/10^6 cells.

In the case of `COC[C@H](C(=O)Nc1cccc2c(-c3nc(Nc4cnc(C(=O)OC)c(C)c4)ncc3F)c[nH]c12)N1CCN(C)CC1` [Example 57, methyl (R)-5-((5-fluoro-4-(7-(3-methoxy-2-(4-methylpiperazin-1-yl)propanamido)-1H-indol-3-yl)pyrimidin-2-yl)amino)-3-methylpicolinate], the pIC50 at JAK3 is less than 5.00; on JAK2, 7.36; at TYK2 it was 6.04; in the series on phosphorylation of STAT6, 7.80; at JAK1 it was 9.80. This compound returned a microsomal CLint at 1 μM in series [1] greater than 300 µL/min/mg. Also, in series [2], the “Rat Hepatocyte CLint” value is 24.0 μL/min/10^6 cells.

With `COC[C@H](C(=O)Nc1cccc2c(-c3nc(Nc4ccc(CO)cn4)ncc3F)c[nH]c12)N1CCN(C)CC1` [Example 59, (R)-N-(3-(5-fluoro-2-((5-(hydroxymethyl)pyridin-2-yl)amino)pyrimidin-4-yl)-1H-indol-7-yl)-3-methoxy-2-(4-methylpiperazin-1-yl)propanamide], the pIC50 was less than 5.00 on JAK3; 5.65 on JAK2; less than 5.00 on TYK2; 7.76 in the series on phosphorylation of STAT6; 6.88 on JAK1. Moreover, the microsomal CLint at 1 μM in series [1] turned out to be 10.7 µL/min/mg. Moreover, in series [2], the “Rat Hepatocyte CLint” value is greater than 300 μL/min/10^6 cells.

With `COC[C@H](C(=O)Nc1cccc2c(-c3nc(Nc4ccc(CCO)nc4)ncc3F)c[nH]c12)N1CCN(C)CC1` [Example 60, (R)-N-(3-(5-fluoro-2-((6-(2-hydroxyethyl)pyridin-3-yl)amino)pyrimidin-4-yl)-1H-indol-7-yl)-3-methoxy-2-(4-methylpiperazin-1-yl)propanamide], the pIC50 is less than 5.00 at JAK3; 6.80 on JAK2; 5.87 on TYK2; 7.75 in the series on phosphorylation of STAT6; 9.60 at JAK1. For the same compound, the microsomal CLint at 1 μM in series [1] was 7 µL/min/mg. The “Rat Hepatocyte CLint” value in series [2] came out at 4.6 μL/min/10^6 cells.

Turning to `COC[C@H](C(=O)Nc1cccc2c(-c3nc(Nc4ccc5c(c4)C(=O)OCC5)ncc3F)c[nH]c12)N1CCN(C)CC1` [Example 64, (R)-N-(3-(5-fluoro-2-((1-oxoisochroman-7-yl)amino)pyrimidin-4-yl)-1H-indol-7-yl)-3-methoxy-2-(4-methylpiperazin-1-yl)propanamide], the pIC50 on JAK3 was less than 5.00; at JAK2 it was 7.66; on TYK2 it was 6.29; with phosphorylation of STAT6, 7.74; on JAK1, 9.85. In series [1], this compound displayed a microsomal CLint at 1 μM of 21.9 µL/min/mg. For the same compound, in series [2], the “Rat Hepatocyte CLint” value stood at 4.0 μL/min/10^6 cells.

With `COC[C@H](C(=O)Nc1cccc2c(-c3nc(Nc4cnc(CCO)c(OC)c4)ncc3F)c[nH]c12)N1CCN(C)CC1` [Example 66, (R)-N-(3-(5-fluoro-2-((6-(2-hydroxyethyl)-5-methoxypyridin-3-yl)amino)pyrimidin-4-yl)-1H-indol-7-yl)-3-methoxy-2-(4-methylpiperazin-1-yl)propanamide], the pIC50 at JAK3 is less than 5.00; at JAK2, 7.92; on TYK2, 6.26; in the series with phosphorylation of STAT6 it was 7.69; at JAK1 it was 9.46. In series [1], this compound gave a microsomal CLint at 1 μM of 25 µL/min/mg. The “Rat Hepatocyte CLint” value in series [2] is 12.7 μL/min/10^6 cells.
